Type in all cases: in vitro ADME
Data set [1] is described as follows: Bidirectional permeability in Caco-2 cells. Particulars: human, Caco-2, 5 µM, alone; for efflux ratio at 60 min, 5 µM: read-out: Ratio (B/A), efflux ratio. On the procedure:
The Caco-2 cell culture and bidirectional permeability assays used in the study were adapted from previous studies at Takeda. Briefly, Caco-2 cells were obtained from American Type Culture Collection (ATCC) (Manassas, VA, USA) and were cultured in 175 cm^2 tissue culture T-flasks (Corning Life Sciences, Corning, NY, USA). For bidirectional permeability assays, cells were plated onto Costar 24-well culture plates (0.33 cm^2/well, […] (Corning Life Sciences, Corning, NY, USA) by adding 1 × 10^5 cells suspended in 0.2 mL of culture medium (Dulbecco’s modified Eagle’s medium [DMEM] with 0.1 mM non-essential amino acids, 2 mM L-glutamine, 4.5 g/L glucose, and 10% fetal bovine serum [FBS]) to the upper chamber of each well of the 24-well transwell plate. Cell-free culture medium (40 mL) was added to the lower chamber reservoir (Corning Life Sciences, Corning, NY, USA). The transwell plates were then incubated at 37 °C in an atmosphere of 5% CO2 for 25 days to ensure complete enterocyte-like differentiation of the cells, and the culture medium was changed every three to four days during the incubation period. Cell monolayers with transepithelial electrical resistance (TEER) values > 250 ohms × cm^2 were used for the bidirectional permeability assays.
All chemicals and reagents including control compounds were purchased from commercial sources such as Sigma-Aldrich or synthesized in house (pevonedistat and LY335979). Bidirectional transport studies were performed at 37 °C. Before each experiment, the confluent cell monolayers on transwell inserts were washed and equilibrated for 30 min with transport media (Hank’s Balanced Salt Solution [HBSS] containing 25 mM 4-(2-hydroxyethyl)-1-piperazineethanesulfonic acid [HEPES] and 10 mM glucose, pH 7.4 or 6.5). The bidirectional permeability of 5 µM of the cyclohexane derivative was assessed alone or in the presence of 5 µM LY335979, 5 µM K0143, or 10 µM Elacridar to inhibit P-gp, BCRP, and both efflux transporters, respectively. Additionally, the bi-directional permeability of 5 µM solutions of nadolol (low permeable control marker), minoxidil (high permeable marker), propranolol (high permeable marker), and pevonedistat (efflux transporter control) was also assessed. The experiment was initiated by adding a solution containing the test compounds and LY335979 to either the apical (for apical-to-basolateral [A-to-B] transport) or basolateral (for basolateral-to-apical [B-to-A] transport) compartment. Lucifer yellow (50 µM) was added to each donor chamber in the experiment to serve as a paracellular transport control and to monitor cell monolayer integrity. The apical volume was 0.2 mL and the basolateral volume was 1.0 mL. Bovine serum albumin (BSA, Sigma Aldrich) (5%) was added to the transport media on the receiver side to prevent non-specific binding of the test compound to the polystyrene well. After the addition of test compound into the donor side, […] of the receiving solution were withdrawn from the receiver side at 30 and 60 min. A […] of fresh transport media was immediately added to the receiver side at 30 and 60 min. The samples were placed into 96-well black plates (PerkinElmer Life Sciences, Boston, MA, USA) for fluorescence measurement (excitation at 450 nm and emission at 535 nm). After this measurement, the amounts of cyclohexane derivative and control compounds in each sample were quantified with liquid chromatography–mass spectrometry (LC–MS). The time course of drug transported across cell monolayers was analyzed to determine the time and rate of steady-state flux. The transport rate (total amount of drug present in the receiver chamber per unit time), Papp, and efflux ratio were calculated as described in Equations (4) and (5). […]

Data set [2] can be described thus: In vitro liver microsomal metabolism study, rat. Particulars: rat liver microsomes. The method, then: (§1) Metabolic stability was assessed by incubating compounds in the presence of human, rat, and mouse liver microsomal fractions (Xenotech, Kansas City, KS, USA). All chemicals and reagents, including control compounds, were purchased from commercial sources such as Sigma-Aldrich (St. Louis, MO, USA) or Toronto Research Chemicals (North York, ON, Canada). Liver microsomal incubations were conducted with 100 mM phosphate buffer, 0.5 mg/mL of liver microsomal protein, 2 mM NADPH, 2.5 mM UDPGA, 3 mM MgCl2, alamethicin, and 1 μM test article for a total incubation volume of 80 µL. All reagents except the liver microsomes were mixed together and aliquoted (60 μL) into 96-well plates. The reaction was initiated by adding the microsomes (20 μL). At 0, 3, 7, 12, 20, and 30 min time points, the reactions were terminated with the addition of acetonitrile-containing carbutamide (as an internal standard). The terminated samples were then centrifuged at 2 °C to pellet the protein and the supernatant was injected onto an LC–MS. The test article was monitored for loss over time and the t1/2 was determined. The calculated t1/2 was then used as described below to determine the Eh (hepatic extraction ratio) for both human and rat.
(§2) The intrinsic clearance (CLint), hepatic clearance (CLh), and hepatic extraction ratio (Eh) were calculated using the equations below. CLint = (0.693/t1/2 in vitro) × (mL incubation volume/mg microsomal protein) × (X mg of microsomal protein/gram of liver) × (Y g of liver/kg of body weight)(1) CLh = Q × CLint/Q + CLint(2) Eh = CLh/Q(3) where: • CLint = intrinsic clearance (calculated from microsomal incubations) • X = 40 for human, 41.5 for rat and 45 for mouse • Y = 21.4 for human, 40 for rat and 50 for mouse • t1/2 = half-life • CLh = hepatic clearance • Q = liver blood flow rate = 1.24 L/h/kg for human, 4.8 L/h/kg for rat, and 5.4 L/h/kg for mouse • Eh = hepatic extraction ratio • CLh = hepatic clearance

Data set [3] can be described thus: In vitro liver microsomal metabolism study, mouse. Conditions: mouse liver microsomes. The method, then:
as §1, §2

The nature of data set [4]: In vitro liver microsomal metabolism study, human. Conditions: human liver microsomes. The method, then:
as §1, §2
(In general: Liver microsomes are vesicles of endoplasmic reticulum, rich in cytochrome P450 enzymes.)

Data set [5] in a line: Plasma stability study, human. Conditions: pooled plasma, 37 °C, read-out: Plasma Half-Life, t1/2. The method, then:
(§3) Briefly, plasma stability was assessed by incubating compounds in the presence of human (pooled) and mouse (pooled) plasma (Bioreclamation, Westbury, NY, USA). All chemicals and reagents including control compounds were purchased from commercial sources such as Sigma-Aldrich or Toronto Research Chemicals. Plasma incubations were conducted by placing plasma (95 μL) in a 96-well microtiter plate and warming to 37 °C for 5 min. The reaction was initiated with the addition of the test article (5 μL of 20 μM), totaling 100 μL in incubation volume. At 0, 15, 30, 60, and 120 min time points, the reactions were terminated with the addition of acetonitrile-containing carbutamide (as an internal standard). The terminated samples were then centrifuged at 2 °C to pellet the protein, and the supernatant was injected onto an LC–MS. The test article was monitored for loss over time and the t1/2 was determined.

Data set [6] in a line: Plasma stability study, mouse. Conditions: mouse, pooled plasma, 37 °C, read-out: Plasma Half-Life, t1/2. On the procedure:
as §3

This is an account of results in publication PMC10609273, “Radiosynthesis and Early Evaluation of a Positron Emission Tomography Imaging Probe [^18F]AGAL Targeting Alpha-Galactosidase A Enzyme for Fabry Disease” (Molecules, 2023).

Molecules are shown by their SMILES.

What is called Papp A→B is how fast a substance crosses the layer from the apical side. A lower Papp A→B goes with poor permeation. In general, Papp B→A refers to the apparent permeability from the basolateral to the apical side of a cell layer. As usually defined, the CLint scaled is the capacity of the preparation to metabolise the compound, expressed as a volume cleared per time.

Take `CC(C)NCC(O)COc1cccc2ccccc12` (stereo not shown) [Propranolol, reference compound]: in data set [1], the Papp A→B at 60 min, 5 µM stood at 43.7 ×10⁻⁶ cm/s; the Papp B→A at 60 min, 5 µM was 44.4 ×10⁻⁶ cm/s; the efflux ratio at 60 min, 5 µM worked out at 1.
On to `COc1ccc2c(c1)[C@]13CCCC[C@@H]1[C@H](C2)N(C)CC3` [Dextromethorphan, reference compound], for which the CLh in data set [2] came to 71.2 mL/min/kg; in data set [3], 77.3 mL/min/kg; in data set [4] it was 14 mL/min/kg. Besides, the “Eh (hepatic extraction ratio)” value in data set [2] is recorded as 0.889; in data set [3], 0.860; in data set [4], 0.676. Moreover, the CLint scaled at 1 µM was 642 mL/min/kg in data set [2] (1 μM, NADPH + UDPGA); 552 mL/min/kg in data set [3] (1 μM, NADPH + UDPGA); 43.2 mL/min/kg in data set [4] (1 μM, NADPH + UDPGA).
As for `CC(C)(C)NCC(O)COc1cccc2c1CC(O)C(O)C2` (stereo not shown) [Nadolol, reference compound], in data set [1], the Papp A→B at 60 min, 5 µM turned out to be 0.36 ×10⁻⁶ cm/s; the Papp B→A at 60 min, 5 µM amounted to 1.45 ×10⁻⁶ cm/s; the efflux ratio at 60 min, 5 µM was determined as 4.1.
Take `CC(C)[N+](C)(CCOC(=O)C1c2ccccc2Oc2ccccc21)C(C)C` [Propantheline, reference compound]: the half-life at 1 µM was determined as 7.22 min in data set [5] and 26 min in data set [6].
`Nc1cc(N2CCCCC2)nc(N)[n+]1[O-]` [Minoxidil, reference compound]: in data set [1], the Papp A→B at 60 min, 5 µM is 7.81 ×10⁻⁶ cm/s; the Papp B→A at 60 min, 5 µM worked out at 9.78 ×10⁻⁶ cm/s; the efflux ratio at 60 min, 5 µM was determined as 1.3.
Regarding `CCOC(=O)[C@H](CCc1ccccc1)N[C@@H](C)C(=O)N1CCC[C@H]1C(=O)O` [Enalapril, reference compound], the half-life at 1 µM came out at 283 min in data set [5] and 30.6 min in data set [6].
As for `NS(=O)(=O)OC[C@@H]1C[C@@H](n2ccc3c(N[C@H]4CCc5ccccc54)ncnc32)C[C@@H]1O` [Pevonedistat, reference compound], in data set [1], the Papp A→B at 60 min, 5 µM turned out to be 3.37 ×10⁻⁶ cm/s; the Papp B→A at 60 min, 5 µM was 63.4 ×10⁻⁶ cm/s; the efflux ratio at 60 min, 5 µM stood at 18.8.
